Measured values reported in patent US11207330B2, “Mirtazapine for use in medication overuse headache based on tension-type headache” (Curatis AG, priority 2019, dated 2021).

Columns and labels:
[1] = system: patients with daily medication overuse headache (MOH) based on tension-type headache; assay: Headache diary AUC (headache duration multiplied with headache intensity) in MOH patients, placebo then mirtazapine; format: in vivo, human; conditions: for AUC (sum of daily headache duration multiplied with headache intensity): 15 to 30 mg mirtazapine per day for 8 weeks, last four weeks of intake, analgesics allowed; for Reduction of AUC versus placebo: mirtazapine 15 to 30 mg per day vs placebo period, last four weeks
Method: (§1) a) Patients had daily medication overuse headache (MOH) originating from daily analgesic use primarily against tension-type headache as primary headache. They were treated first with placebo for 8 weeks, followed by two weeks of wash-out (taking placebo), and then administration of 15 to 30 mg of mirtazapine per day for 8 weeks. During that time they were allowed to continue taking their analgesics as usual, if they felt it was necessary.
At the same time, they had to keep a diary where they had to write down the frequency and duration of their headache as well as the headache intensity. After completion of the study the diaries were evaluated and the daily recordings of headache duration was multiplied with headache intensity to give the “AUC”, which means “area under the curve”. The results shown in table 1 and table 2 below are from the last four weeks of intake of either placebo or mirtazapine. […] It can be seen that both patients experienced improvement of their headache upon administration of mirtazapine.
FIG. 1 depicts the subjective well-being of patients, i.e. decreased number of headache attacks, shorter headache attacks with lower headache intensity. The lower the count of the y-axis, the better is the subjective well-being. AUC means area under the curve. AUC was calculated as the sum of the daily recordings of headache duration multiplied with headache intensity.

[2] = system: patients with daily medication overuse headache (MOH) based on tension-type headache; assay: Intake of overused analgesic medication recorded by the same MOH patients; format: in vivo, human; conditions: for Analgesics Usage: 15 to 30 mg mirtazapine per day for 8 weeks, last four weeks of intake; for Reduction of Analgesics Usage versus placebo: mirtazapine 15 to 30 mg per day vs placebo period, last four weeks
Method: as §1
b) Moreover, the intake of overused analgesic medication was recorded by the same patients and during the time frame as described above in (a). Patient 1 reduced the intake of overused medication by 80% (Table 2). As for patient 2, the reduction is 15%, whereby both patients additionally benefit from improved well-being, i.e. from decreased number of headache attacks, shorter headache attacks with lower headache intensity (see above).

Structure (SMILES): CN1CCN2c3ncccc3Cc3ccccc3C2C1 (racemic) [Mirtazapine, (RS)-(±)-2-methyl-1,2,3,4,10,14b-hexahydropyrazino[2,1-a]pyrido[2,3-c][2]benzazepine]
- AUC (sum of daily headache duration multiplied with headache intensity) ([1]; Patient 1): 420
- Reduction of AUC versus placebo ([1]; Patient 1): 62%
- AUC (sum of daily headache duration multiplied with headache intensity) ([1]; Patient 2): 895
- Reduction of AUC versus placebo ([1]; Patient 2): 34%
- Analgesics Usage ([2]; Patient 1): 2
- Reduction of Analgesics Usage versus placebo ([2]; Patient 1): 80%
- Reduction of Analgesics Usage versus placebo ([2]; Patient 1, listed as mirtazapine): 80%
- Analgesics Usage ([2]; Patient 2): 47
- Reduction of Analgesics Usage versus placebo ([2]; Patient 2): 15%
- Reduction of Analgesics Usage versus placebo ([2]; Patient 2, listed as mirtazapine): 15%
